Results on 3 molecules are retold here after patent EP0992240A1, “THERAPEUTIC AGENT FOR ERECTION FAILURE” (MOCHIDA PHARMACEUTICAL CO., LTD., priority 1997, dated 1998).

Data set [1] concerns the target T1, PDE type V (Canis lupus familiaris, UniProt O77746).
T1 construct: By elution with a sodium chloride gradient (0 - 0.4 M), PDE types V and III were separated from the other isozymes; from tissue; host or cells: canine aorta
The experiment in a line: PDE inhibiting activity, type V. Format: biochemical, dog. The settings on record: PDE purified from canine aorta, 1 µM substrate cGMP or cAMP.
Method: The canine aorta was minced and homogenized with a Waring Blender and a glass homogenizer in six volumes of a Tris-HCl buffer solution (pH 7.5, 20 mM) containing 2 mM magnesium acetate, 5 mM ethylenediaminetetraacetic acid (EDTA), 100 µg/mL of phenylmethylsulforyl fluoride and 15 mM 2-mercaptoethanol (2-ME), and centrifuged at 1200 x g for 30 min. […] By elution with a sodium chloride gradient (0 - 0.4 M), PDE types V and III were separated from the other isozymes. […] The resulting precipitated fraction was similarly applied to the DEAE-trisacryl column and eluted by a sodium chloride gradient (0 - 0.4 M) so as to separate PDE type I.
Specifically, a purified PDE sample was added to 50 mM Tris-HCl buffer solution (pH 7.5) containing 1 µM of substrate cGMP or cAMP (containing tritium-labelled cGMP or cAMP), 1 mM EGTA and 2 mM magnesium acetate. For PDE activity measurement, enzymatically produced 5' GMP or 5' AMP was further hydrolyzed into guanosine or adenosine with snake venom and separated from the substrate by means of an ion-exchange resin (Dowex 1-X2), followed by measuring with a scintillation counter. […] The final concentration of DMSO was adjusted to be no more than 2% in consideration of the effect on PDE activity.

The subject of data set [2] is smooth muscle of cavernous body of rabbits. The experiment in a line: Enhancement of nitroprusside relaxation of isolated cavernous body strips. The settings on record: relaxation by 1 µM nitroprusside compared with solvent. How it is done:
Rabbits were anesthetized by an intravenous injection of 40-50 mg/kg of pentobarbital (Nembutal™ manufactured by Dainippon Pharmaceutical Co., Ltd.), blood was drained out by incision of carotid artery, and penis was taken out and placed in an ice-cooled nutrient solution (Krebs bicarbonate containing 118 mM of NaCl, 4.7 mM of KCl, 1.2 mM of KH2PO4, 1.2 mM of MgSO4.7H2O, 1.5 mM of CaCl2, 25 mM of NaHCO3, 11 mM of glucose and 0.023 mM of EDTA·2Na). After the tissues around the albuginea were incised in a nutrient solution, the albuginea was incised to prepare cavernous body of the penis. The cavernous body was cut and both ends of the strips of about 1 cm length were ligated by nylon yarn. One end was fixed to a supporting rod, transferred into a 20-ml Magnus tube which was filled with the nutrient solution, passed with a mixed gas of 95% oxygen and 5% carbon dioxide and kept at 37 °C while another end of the strip was connected to an isometric transducer (TB-611T; NIHON KOHDEN CORP.) placed on the upper area and a stress load of about 2 g was applied. After stabilization of 60 minutes or longer, strips were contracted with 10 µM of phenylephrine in the presence of 5 µM of guanetidine and 1 µM of atropine and, after stabilization, 1 µM or 100 µM of nitroprusside was added whereby relaxation by nitroprusside was ascertained. […] Rate of relaxation by 1 µM of nitroprusside after addition of the sample was compared with that after addition of the solvent and the increasing rate was calculated. […]

Data set [3] can be described thus: Absorption upon intranasal administration to rats. Particulars: for MRT as compared with oral administration / Tmax as compared with oral administration / bioavailability: intranasal administration; for MAT / MRT / Tmax: intranasal; for bioavailability / MRT / Tmax: male, Wistar, rat, inhaled or intranasal. The format is in vivo, Male wistar rats. From the text:
Male wistar rats (eight weeks age) were anesthetized by intraperitoneal injection of 1 g/kg of urethane. Neck was incised to expose a trachea and polyethylene tube (SP 120; Natsume Seisakusho) was inserted into the trachea. Then a part of esophagus was opened by cutting and a polyethylene tube of the same diameter was inserted to the direction of choana and the end was tightly sealed with absorbent cotton and adhesive. In order to prevent a leakage of drug solution from nasopalatine canal, said canal of upper chin opening to mouth was closed by synthetic adhesive. The drug was dissolved in a 0.1% tartaric acid solution and the drug of 500 µl/kg was administered by a micropipette from outer nasal cavity followed by closing both outer nasal cavities immediately. As a control, the rat to which the drug was intravenously injected was prepared. After the injection; aliquot of blood was collected from time to time from jugular vein using a heparin-treated syringe and centrifuged to give plasma. Certain amount of the resulting plasma was collected, extracted with tert-butyl-methyl-ether three times, and the organic phase was evaporated to dryness and dissolved in the initial solvent for HPLC. A certain amount thereof was injected into an HPLC connected to an ultraviolet absorption detector and the drug concentration in the plasma was measured by reversed phase column. Time for arriving the maximum blood concentration (Tmax), mean residence time (MRT) and mean absorption time (MAT) were calculated from the measured value.

The nature of data set [4]: Absorption by percutaneous administration in rats. Format: in vivo. Particulars: hairless rats, Dose 10 mg/kg; for MRT / Tmax: rat. How it is done: Abdominal skin of hairless rats (eight weeks age, Nippon SLC) was wiped with 70% ethanol, and 0.25 ml/kg of a drug solution (40 mg/ml DMSO) was applied to an area of 8 cm^2 (2 x 4 cm) and the applied area was coated with a film coating agent (Permiaid S, Nitto Medical) and fixed with an adhesive bandage (Elastopore, Nichiban). After application of the drug solution, aliquot of blood was collected from time to time using a heparin-treated syringe from jugular vein and centrifuged to give plasma. Aliquot plasma was extracted with tert-butyl-methyl-ether three times, and the organic phase was evaporated to dryness and dissolved in the initial solvent for HPLC. A certain amount thereof was injected into a HPLC connected to an ultraviolet absorption detector and the drug concentration in the plasma was measured by means of a reversed phase column. Pharmacokinetic parameters were calculated from the measured data by the same manner as in Experiment 3.

In data set [5] the test system is male wistar rats. The experiment in a line: Toxicity test, oral administration for four days. The settings on record: 100 mg/kg/day orally for four days.
Data set [6] deals with PDE type I. Kind of data set: PDE inhibiting activity, type I. Format: biochemical, dog. Particulars: PDE purified from canine aorta; 1 µM substrate cGMP or cAMP; read-out: Inhibition Activity IC50 (µM) Type I. The procedure:
On the basis of the method of Lugnier et al. (Biochem. Pharmacol., 35, 1743-1751, 1986), PDE was purified from the aorta in a dog. The canine aorta was minced and homogenized with a Waring Blender and a glass homogenizer in six volumes of a Tris-HCl buffer solution (pH 7.5, 20 mM) containing 2 mM magnesium acetate, 5 mM ethylenediaminetetraacetic acid (EDTA), 100 µg/mL of phenylmethylsulforyl fluoride and 15 mM 2-mercaptoethanol (2-ME), and centrifuged at 1200 x g for 30 min. The supernatant was separated and salted out with ammonium sulfate which was added to 45% saturation. The resulting precipitated fraction was resuspended in a Tris-HCl buffer solution (pH 7.5, 20 mM) containing 2 mM magnesium acetate and 1 mM 2-ME, dialyzed overnight and applied to a DEAE-trisacryl column (DEAE […] M:IBF). By elution with a sodium chloride gradient (0 - 0.4 M), PDE types V and III were separated from the other isozymes. The supernatant fraction of 45% saturated ammonium sulfate was further mixed with ammonium sulfate to 65% saturation and salted out. The resulting precipitated fraction was similarly applied to the DEAE-trisacryl column and eluted by a sodium chloride gradient (0 - 0.4 M) so as to separate PDE type I.
The thus obtained PDE types V, III and I were measured for their activity in accordance with the method of Thompson et al. (Adv. Cyclic Nucleotide Res., 10, 69-72, 1979) and the method of Wells et al. (Biochim. Biophys. Acta, 384, 430-443, 1975). Specifically, a purified PDE sample was added to 50 mM Tris-HCl buffer solution (pH 7.5) containing 1 µM of substrate cGMP or cAMP (containing tritium-labelled cGMP or cAMP), 1 mM EGTA and 2 mM magnesium acetate. For PDE activity measurement, enzymatically produced 5' GMP or 5' AMP was further hydrolyzed into guanosine or adenosine with snake venom and separated from the substrate by means of an ion-exchange resin (Dowex 1-X2), followed by measuring with a scintillation counter. The activity of each test compound was determined as a percentage of the PDE activity measured when it was added as a dimethyl sulfoxide solution (DMSO) and its IC50 (50% inhibition concentration) was calculated by the probit method. The final concentration of DMSO was adjusted to be no more than 2% in consideration of the effect on PDE activity.

Setting [7] is: read-out: Inhibition Activity IC50 (µM) Type V.

SMILES strings stand for the structures. Read-outs that look alike come from different tables or passages of the source.

As to `CS(=O)(=O)O.O=c1c(Cc2cccnc2)cn2c3cc(Br)ccc3c3cc(OCCCO)cc1c32` [Example 52, 9-bromo-2-(3-hydroxypropyloxy)-5-(3-pyridylmethyl)-4H-pyrido[3,2,1-jk]carbazol-4-one methanesulfonate], the IC50 in data set [1] (setting [7]) was 0.0057 µM. Also, the “Enhancing Rate of Relaxation (%)” value in data set [2] (Final Added Amount 100 nM) is reported as 90.8%; in data set [2] (Final Added Amount 1000 nM), 190.9%. Also, in data set [3], the “MRT as compared with oral administration” value is on record as “same”. The “Tmax as compared with oral administration” value in data set [3] is listed as “same or shortened”. Besides, the “MAT” value is 1 to 2 h in data set [3] (Dose 0.3 mg/kg) and 7.9 h in data set [4]. For the same molecule, the bioavailability in data set [3] (plasma) was roughly 100%. Moreover, the MRT is 2 to 3 h in data set [3] (plasma, Dose 0.3 mg/kg) and 8.5 h in data set [4] (plasma, topical). The Tmax in data set [3] (plasma, Dose 0.3 mg/kg) was 0.2 to 0.5 h; in data set [4] (plasma, topical) it was 1 h. Besides, the “abnormal change in body weight and general symptoms” value in data set [5] is “no abnormal change”. Also, the dead case entry in data set [5] (until the next morning of the completion of the administration) is given as “no dead case”.
In the case of `CCCc1nn(C)c2c(=O)[nH]c(-c3cc(S(=O)(=O)N4CCN(C)CC4)ccc3OCC)nc12.O=C(O)CC(O)(CC(=O)O)C(=O)O` [sildenafil, 5-[2-ethoxy-5-(4-methylpiperazin-1-ylsulfonyl)phenyl]-1-methyl-3-propyl-6,7-dihydro-1H-pyrazolo[4,3-d]pyrimidin-7-one-citrate, reference compound], the IC50 amounted to 0.0018 µM in data set [1] (Inhibition Activity IC50 (µM) Type V) and 0.46 µM in data set [6]. The “Enhancing Rate of Relaxation (%)” value in data set [2] (Final Added Amount 1000 nM) was 189.1%. Moreover, the “MRT as compared with oral administration” value in data set [3] was “same”. In addition, the “Tmax as compared with oral administration” value in data set [3] was “same or shortened”. The “MAT” value is 1 to 2 h in data set [3] (Dose 1.0 mg/kg) and 14.3 h in data set [4]. The molecule also registered a bioavailability in data set [3] (in vivo) of roughly 100%. The MRT was 2 to 3 h in data set [3] (in vivo, Dose 1.0 mg/kg) and 14.7 h in data set [4] (in vivo). Moreover, the Tmax in data set [3] (in vivo, Dose 1.0 mg/kg) is 0.2 to 0.5 h; in data set [4] (in vivo), 1 h.
`CC(C)OC(=O)COc1cc2c(=O)ccn3c4ccc(Br)cc4c(c1)c23` [Example 22, 10-bromo-2-i-propoxycarbonylmethyloxy-4H-pyrido[3,2,1-jk]carbazol-4-one]: the IC50 in data set [1] (setting [7]) is 0.0008 µM; in data set [6], greater than 30 µM.
